This assay has as its target T1, Human α-thrombin (Homo sapiens, UniProt P00734).
T1 construct: Human α-thrombin; purchased Sigma Chemical Co. or Hematologic Technologies
As to the kind of experiment: Test A: Determination of Thrombin Inhibition with a Chromogenic, Robotic Assay. The format is biochemical. The settings on record: chromogenic substrate S-2366 0.30 mmol/L, α-thrombin 0.020 NIHU/mL, 40 minutes incubation at 37° C. The procedure: Determination of Thrombin Inhibition with a Chromogenic, Robotic Assay
The thrombin inhibitor potency is measured with a chromogenic substrate method, in a Plato 3300 robotic microplate processor (Rosys AG, CH-8634 Hombrechtikon, Switzerland), using 96-well, half volume microtitre plates (Costar, Cambridge, Mass., USA; Cat No 3690). Stock solutions of test substance in DMSO (72 μL), 0.1-1 mmol/L, are diluted serially 1:3 (24+48 μL) with DMSO to obtain ten different concentrations, which are analysed as samples in the assay. 2 μL of test sample is diluted with 124 μL assay buffer, 12 μL of chromogenic substrate solution (S-2366, Chromogenix, Mölndal, Sweden) in assay buffer and finally 12 μL of α-thrombin solution (Human α-thrombin, Sigma Chemical Co. or Hematologic Technologies) in assay buffer, are added, and the samples mixed. The final assay concentrations are: test substance 0.00068-133 μmol/L, S-2366 0.30 mmol/L, α-thrombin 0.020 NIHU/mL. The linear absorbance increment during 40 minutes incubation at 37° C. is used for calculation of percentage inhibition for the test samples, as compared to blanks without inhibitor.

Counter-ions that a name gives are not always drawn.

Turning to `CC(C)(C1CC1)C(O)C(=O)N1[C@@H]2C[C@@H]2C[C@H]1C(=O)NCc1cc(Cl)ccc1-n1cnnn1` (stereo partly drawn) [Example 60, (1R,3S,5R)-2-(3-Cyclopropyl-2-hydroxy-3-methyl-butyryl)-2-aza-bicyclo[3.1.0]hexane-3-carboxylic acid 5-chloro-2-tetrazol-1-yl-benzylamide], the IC50 is 0.014 µM.

`CC(C)(C1CC1)C(O)C(=O)N1C[C@H]2C[C@H]2[C@H]1C(=O)NCc1cc(Cl)ccc1-n1cnnn1` (stereo partly drawn) [Example 61, (1R,2S,5S)-3-(3-Cyclopropyl-2-hydroxy-3-methyl-butyryl)-3-aza-bicyclo[3.1.0]hexane-2-carboxylic acid 5-chloro-2-tetrazol-1-yl-benzylamide] showed an IC50 of 0.015 µM.

Consider `CC(C)(C1CC1)C(O)C(=O)N1C[C@@H]2C[C@@H]2[C@H]1C(=O)NCc1cc(Cl)ccc1-n1cnnn1` (stereo partly drawn) [Example 62, (1S,2S,5R)-3-(3-Cyclopropyl-2-hydroxy-3-methyl-butyryl)-3-aza-bicyclo[3.1.0]hexane-2-carboxylic acid 5-chloro-2-tetrazol-1-yl-benzylamide], for which the IC50 is 0.002 µM.

Consider `O=C([C@H](O)CCc1ccccc1)N1CC2CC1(C(=O)NCc1cc(Cl)ccc1-n1cnnn1)C2` [Example 65, 2-((R)-2-Hydroxy-4-phenyl-butyryl)-2-aza-bicyclo[2.1.1]hexane-1-carboxylic acid 5-chloro-2-tetrazol-1-yl-benzylamide], for which the IC50 stood at 0.17 µM.

Consider `CC(C)(C)OC[C@@H](O)C(=O)N1CC2CC1(C(=O)NCc1cc(Cl)ccc1-n1cnnn1)C2` [Example 66, 2-((R)-3-tert-Butoxy-2-hydroxy-propionyl)-2-aza-bicyclo[2.1.1]hexane-1-carboxylic acid 5-chloro-2-tetrazol-1-yl-benzylamide], for which half-maximal inhibition (IC50) was put at 0.067 µM.

For the compound `O=C([C@H](O)C1CCCCC1)N1CC2CC1(C(=O)NCc1cc(Cl)ccc1-n1cnnn1)C2` [Example 67, 2-((R)-2-Cyclohexyl-2-hydroxy-acetyl)-2-aza-bicyclo[2.1.1]hexane-1-carboxylic acid 5-chloro-2-tetrazol-1-yl-benzylamide], it took 0.085 µM to reach half-maximal inhibition (IC50).

`N[C@H](CC1CCCCC1)C(=O)N1CC2CC1(C(=O)NCc1cc(Cl)ccc1-n1cnnn1)C2` [Example 68, 2-((R)-2-Amino-3-cyclohexyl-propionyl)-2-aza-bicyclo[2.1.1]hexane-1-carboxylic acid 5-chloro-2-tetrazol-1-yl-benzylamide hydrochloride] showed an IC50 of 0.004 µM. This IC50 lies about 21-fold lower than the previous one.

`O=C(NCc1cc(Cl)ccc1-n1cncn1)[C@@H]1C[C@@H]2C[C@@H]2N1C(=O)C(O)Cn1cncn1` (stereo partly drawn) [Example 69, (1S,3S,5S)-2-(2-Hydroxy-3-1,2,4-triazol-1-yl-propionyl)-2-aza-bicyclo[3.1.0]hexane-3-carboxylic acid 5-chloro-2-1,2,4-triazol-1-yl-benzylamide]: the concentration for half-maximal inhibition (IC50) is 0.78 µM. Compared with the last compound, the IC50 is about 200-fold higher.

For `O=C(NCc1cc(F)ccc1-n1cnnn1)[C@@H]1C[C@@H]2C[C@@H]2N1C(=O)[C@H](O)c1cccc(Cl)c1` [Example 70, (1S,3S,5S)-2-[(R)-2-(3-Chloro-phenyl)-2-hydroxy-acetyl]-2-aza-bicyclo[3.1.0]hexane-3-carboxylic acid 5-fluoro-2-tetrazol-1-yl-benzylamide], half-maximal inhibition (IC50) was put at 0.036 µM.

With `N[C@@H](C(=O)N1[C@H](C(=O)NCc2cc(Cl)ccc2-n2cnnn2)C[C@@H]2C[C@@H]21)c1cccc(Cl)c1` [Example 71, (1S,3S,5S)-2-[(R)-2-Amino-2-(3-chloro-phenyl)-acetyl]-2-aza-bicyclo[3.1.0]hexane-3-carboxylic acid 5-chloro-2-tetrazol-1-yl-benzylamide], the IC50 is 0.005 µM. Against the preceding compound, the IC50 is about 7.2-fold lower.

On to `NC(C(=O)N1[C@H](C(=O)NCc2cc(Cl)ccc2-n2cnnn2)C[C@@H]2C[C@@H]21)C1CCS(=O)(=O)CC1` (stereo partly drawn) [Example 72, (1S,3S,5S)-2-[2-Amino-2-(1,1-dioxo-hexahydro-1λ^6-thiopyran-4-yl)-acetyl]-2-aza-bicyclo[3.1.0]hexane-3-carboxylic acid 5-chloro-2-tetrazol-1-yl-benzylamide], for which the IC50 stood at 0.24 µM.

Compound `NC(C(=O)N1[C@H](C(=O)NCc2cc(Cl)ccc2-n2cnnn2)C[C@@H]2C[C@@H]21)c1ccccc1F` (stereo partly drawn) [Example 73, (1S,3S,5S)-2-[2-Amino-2-(2-fluoro-phenyl)-acetyl]-2-aza-bicyclo[3.1.0]hexane-3-carboxylic acid 5-chloro-2-tetrazol-1-yl-benzylamide] displayed an IC50 of 0.008 µM.

For `NC(C(=O)N1C[C@@H]2C[C@@H]2[C@H]1C(=O)NCc1cc(Cl)ccc1-n1cnnn1)c1ccccc1F` (stereo partly drawn) [Example 74, (1S,2S,5R)-3-[2-Amino-2-(2-fluoro-phenyl)-acetyl]-3-aza-bicyclo[3.1.0]hexane-2-carboxylic acid 5-chloro-2-tetrazol-1-yl-benzylamide], the IC50 is 0.029 µM.

As for `O=C(NCc1cc(Cl)ccc1-n1cnnn1)[C@@H]1[C@H]2C[C@H]2CN1C(=O)[C@H]1COCCN1` [Example 75, (1S,2S,5R)-3-((R)-Morpholine-3-carbonyl)-3-aza-bicyclo[3.1.0]hexane-2-carboxylic acid 5-chloro-2-tetrazol-1-yl-benzylamide acetate], the 50% inhibitory concentration (IC50) turned out to be 0.65 µM.

`O=C(NCc1cc(Cl)ccc1-n1cnnn1)[C@@H]1C[C@@H]2C[C@@H]2N1C(=O)C1(O)CCCc2ncccc21` (stereo partly drawn) [Example 76, (1S,3S,5S)-2-(5-Hydroxy-5,6,7,8-tetrahydro-quinoline-5-carbonyl)-2-aza-bicyclo[3.1.0]hexane-3-carboxylic acid 5-chloro-2-tetrazol-1-yl-benzylamide] displayed an IC50 of 0.011 µM.

`O=C(NCc1cc(Cl)ccc1-n1cnnn1)[C@@H]1C[C@@H]2C[C@@H]2N1C(=O)C1(O)CCCc2ncccc21` (stereo partly drawn) [Example 77, (1S,3S,5S)-2-(5-Hydroxy-5,6,7,8-tetrahydro-quinoline-5-carbonyl)-2-aza-bicyclo[3.1.0]hexane-3-carboxylic acid 5-chloro-2-tetrazol-1-yl-benzylamide] registered an IC50 of 0.009 µM.

In the case of “(1S,3S,5S)-2-(4-Hydroxy-1-benzopyran-4-carbonyl)-2-aza-bicyclo[3.1.0]hexane-3-carboxylic acid 5-chloro-2-tetrazol-1-yl-benzylamide [Example 63]”, the IC50 was 0.041 µM.

What is called IC50 is the concentration at which inhibition is half-maximal.

The record behind these values is US20090012087A1, “New Aza-Bicyclohexane Compounds Useful As Inhibitors Of Thrombin” (ASTRAZENECA AB, priority 2007, published 2009).
